Measurements reported in patent US20130053323A1, “METHODS AND USE RELATED TO HUMANIN AND HUMANIN-LIKE PEPTIDES” (priority 2009, published 2013).

Columns and labels:
[1] = tested on: apoptosis inducing factor (AIF) and BAX; experiment: Western immunoblotting of pro-apoptotic proteins in C5.18 chondrocytic cell line; assay type: cell-based, rat; settings: 100 nM HNG/1000 nM bortezomib, 6hrs
Procedure: Western immunoblotting to study protein expression was performed in the rat C5.18 chondrocytic cell line after treatment with 1000 nM CT (bortezomib) or 100 nM humanin analog HNG (S14G)/1000 nM CT (bortezomib (Btz)) for 6hrs. […] By adding humanin analog HNG (S14G), the up-regulation and activation of the two pro-apoptotic proteins were suppressed. […] As an internal control the house-keeping gene, GAPDH (35 kDa) was used. The experiment was repeated twice.

[2] = tested on: medulloblastoma (D-283) xenograft; experiment: Tumor volume in medulloblastoma xenograft in NMRI nude mice; assay type: in vivo, human; settings: bortezomib + HNG i.p., until day 13
Procedure: Male NMRI nu/nu mice (B&K Scanbur, Sweden or Taconic, Denmark) were xenografted at the age of 4 weeks (BW 18-25 g). The mice were anesthetized with 2% fluothane (Zeneca Ltd, Macclesfield, UK) supplemented with 50% N2O in oxygen. Tumor cells (NB (SH-SY5Y; 20×10^6 cells/side) or MB (D-283; 10×10^6 cells/side) in 0.1 ml medium) were implanted s.c. in the hindlegs of the animal using a 23 G needle. Tumors were measured every other day with a digital caliper, starting when they were palpable. At a tumor volume of 0.1 ml or 0.15 ml the animals were randomized into groups (1. Vehicle without tumors; 2. Vehicle with tumors; 3. HNG (S14G; 1 μg/mice); 4. CT (bortezomib; 0.8 mg/kg or 1 mg/kg); 5. HNG (S14G) 1 μg/mice+CT (bortezomib; 0.8 mg/kg or 1 mg/kg), stratified by their bodyweight and treatment started. Treatment regime was the same as in clinical settings with 2 injections/week; 2 weeks treatment (see FIG. 1, Group 1). HNG (S14G) was injected 40 min before the CT (bortezomib) injection. Tumor volume was calculated by the formula 0.44×length×width×width (Wassberg, Pahlman et al. 1997). […] The animal weight and general appearance were recorded every day throughout the experiments. […] After fixation, femur and tibia were measured with digital calipers and decalcified in 5% EDTA and then paraffin embedded. […]

type-X collagen = experiment: Immunohistochemistry for type-X collagen in tibia growth plate; assay type: in vivo, mice
Procedure: Four weeks old mice (female, FVB) were injected with Dexa dissolved in saline (20 μg/mice) subcutaneously in the neck every day for four week. Whereas, HNG (S14G) dissolved in saline (1 μg/mice) was injected intra-peritoneally, 45 minutes prior to the Dexa injection. The vehicle group received saline only. The femur and tibia bones were dissected out and fixed in 4% formalin for 24 hrs, followed by decalcification in 10% EDTA and embedded in paraffin blocks. Five-micrometer-thick sections were prepared from these paraffin blocks. After one wash in dH2O, endogenous peroxidase activity was reduced by incubation in 3% hydrogen peroxide in methanol for 5 min at room temperature. The sections were additionally treated with 5 mg/ml hyaluronidase (Sigma-Aldrich, Inc, Steinheim, Germany) for 30 min at 37° C., then blocked in 3% horse serum and incubated overnight at +4° C. with anti-collagen type-X primary antibody (Quartett GmbH, Berlin, Germany; 1:30). Secondary anti-mouse biotinylated antibody (1:300) was purchased from DakoCytomation A/S (Glostrup, Denmark). Sections were washed in TBS, incubated with avidin-conjugated peroxidase (Vector Laboratories) for 60 min, and the resulting peroxidase activity was detected using a DAB Kit (Vector Laboratories). […] Minimum 4 measurements were taken from each sample and measured blindly. n=4-5/group, **p<0.01. […]

For “S14G-HN (MAPRGFSCLLLLTGEIDLPVKRRA) [HNG (S14G)]”, the “bortezomib-induced up-regulation and activation of AIF and BAX” value [1] was “suppressed”, the “interference with anti-cancer effect of bortezomib (tumor volume)” value [2] was “does not interfere with the anti-cancer effect” and the “type-X collagen expression (height)” value (type-X collagen; Dexa 20 μg/mice + HNG 1 μg/mice every day for four weeks, vs Dexa alone, p<0.01) was “significantly increased”. The “type-X collagen expression (height)” value (type-X collagen; HNG only, 1 μg/mice every day for four weeks) was “also increased”.
